Measured values from ChEMBL document CHEMBL6087397, “H2S-releasing oridonin derivatives with improved antitumor activity by inhibiting the PI3K/AKT pathway” (Bioorg Med Chem, 2024).
Active and inactive are the calls of the source. The rule behind the calls is not given here.

Legend:
MIA PaCa-2 [1] = experiment: Induction of cell cycle arrest in human MIA PaCa-2 cells assessed as increase in accumulation of cells at S phase at 2.5 uM incubated for 48 hrs by PI staining based flow cytometric analysis (reference value: 9.38%); assay type: functional
MCF7 [2] = experiment: Inhibition of cell invasion in human MCF7 cells assessed as decrease in number of invading cells at 0.5 to 1.0 uM incubated for 48 hrs by crystal violet staining based transwell microscopic analysis; assay type: functional; conditions: dose 0.5-1 µM
MCF7 [3] = experiment: Antiproliferative activity against human MCF7 cells assessed as inhibition of cell proliferation incubated for 48 hrs by CCK-8 assay; assay type: functional, cell-based; conditions: MCF7, 48 h
HepG2 = experiment: Antiproliferative activity against human HepG2 cells assessed as inhibition of cell proliferation incubated for 48 hrs by CCK-8 assay; assay type: functional, cell-based; conditions: HepG2, 48 h
MCF7 [4] = experiment: Induction of apoptosis in human MCF7 cells assessed as increase in cleaved caspase-3 level at 1.25 to 5.0 uM incubated for 48 hrs by Western blotting analysis; assay type: functional, cell-based; conditions: dose 1.25-5 µM
MIA PaCa-2 [5] = experiment: Inhibition of cell migration in human MIA PaCa-2 cells assessed as wider scratch areas at 0.5 to 1.0 uM incubated for 48 hrs by scratch assay; assay type: functional, cell-based; conditions: dose 0.5-1 µM
MIA PaCa-2 [6] = experiment: Inhibition of PI3K expression in human MIA PaCa-2 cells at 1.25 to 5.0 uM incubated for 48 hrs by Western blotting analysis; assay type: functional, cell-based; conditions: dose 1.25-5 µM
MIA PaCa-2 [7] = experiment: Induction of apoptosis in human MIA PaCa-2 cells assessed as upregulation of Cyt-C expression at 1.25 to 5.0 uM incubated for 48 hrs by Western blotting analysis; assay type: functional, cell-based; conditions: dose 1.25-5 µM
4T1 = experiment: Antitumor activity against mouse 4T1 cells xenografted in female BALB/c mouse assessed as reduction in tumor volume at 10 mg/kg, ip administered every 2 days; assay type: functional, organism-based
MCF7 [8] = experiment: Induction of apoptosis in human MCF7 cells assessed as early apoptotic cells at 10 uM incubated for 48 hrs by Annexin V-FITC/PI staining based flow cytometric analysis (reference value: 20.2%); assay type: functional
MCF7 [9] = experiment: Induction of apoptosis in human MCF7 cells assessed as increase in cleaved caspase-9 level at 1.25 to 5.0 uM incubated for 48 hrs by Western blotting analysis; assay type: functional, cell-based; conditions: dose 1.25-5 µM
MCF7 [10] = experiment: Induction of apoptosis in human MCF7 cells assessed as increase in fluorescence intensity at 2.5 uM incubated for 48 hrs by Hoechst 33342 staining based fluorescence microscopic analysis; assay type: functional, cell-based
MCF7 [11] = experiment: Induction of apoptosis in human MCF7 cells assessed as late apoptotic cells at 20 uM incubated for 48 hrs by Annexin V-FITC/PI staining based flow cytometric analysis (reference value: 20.2%); assay type: functional
MIA PaCa-2 [12] = experiment: Induction of apoptosis in human MIA PaCa-2 cells assessed as increase in nuclear fragmentation at 2.5 uM incubated for 48 hrs by Hoechst 33342 staining based fluorescence microscopic analysis; assay type: functional, cell-based

IC50 (MCF7 [3]): 3.43 µM
IC50 (HepG2): 7.48 µM
SMILES: C=C1C(=O)[C@]23[C@H](OC(=O)c4ccc(N=C=S)cc4)[C@H]1CC[C@H]2[C@@]12CO[C@]3(O)[C@@H](O)[C@@H]1C(C)(C)CC[C@@H]2O
Activity (MIA PaCa-2 [1]): 36%
inhibition (MCF7 [2]): Active
Activity (MCF7 [4]): Active
inhibition (MIA PaCa-2 [5]): Active
inhibition (MIA PaCa-2 [6]): Active
Activity (MIA PaCa-2 [7]): Active
Activity (4T1): Active
Activity (MCF7 [8]): 37%
Activity (MCF7 [9]): Active
Activity (MCF7 [10]): Active
Activity (MCF7 [11]): 57%
Activity (MIA PaCa-2 [12]): Active
